Where two headings read alike, the source gives them in different places. *1 amine or outer side, *2 acyl side, *3 side chain or, on linkers, in order; H or OH if unused. Where a SMILES comes first, the peptide text is derived from it. Bridges are numbered along the chain shown (N, C = ends). Biphenyl(4,4'-CH2)2 = c1cc(-c2ccc(C[*:2])cc2)ccc1C[*:1]; Maleimide(3,4-diyl) = O=C1NC(=O)C([*:2])=C1[*:1]
Target: T1, Aurora-A122-403-C290A/C393A (Homo sapiens, UniProt O14965, C290A/C393A)
T1 construct: Human Aurora-A kinase domain 122-403 wild-type or C290A/ C393A mutant; His tag (pET30TEV vector) (N, cleaved yes); made in house; host or cells: E. coli RIL, co-expressed with lambda phosphatase (Aurora-A); tracer by solid phase synthesis
T1 sequence (O14965 122-403 C290A/C393A): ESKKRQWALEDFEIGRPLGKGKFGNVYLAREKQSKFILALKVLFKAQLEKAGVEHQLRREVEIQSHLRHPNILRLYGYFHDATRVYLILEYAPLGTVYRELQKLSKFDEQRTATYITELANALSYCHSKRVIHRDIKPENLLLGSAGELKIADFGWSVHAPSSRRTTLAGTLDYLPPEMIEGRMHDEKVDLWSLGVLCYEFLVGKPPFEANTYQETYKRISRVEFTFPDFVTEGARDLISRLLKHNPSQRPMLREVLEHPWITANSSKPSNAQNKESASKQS
Test: Competition FA assay against FAM-Ahx-TACC3 522-536 tracer
Format: binding

[1] = as E1, oxidised (disulfide) species made in situ from 10 mM stock in aqueous DMSO 33% v/v, air, overnight, WT control (+DMSO) given the same DMSO incubation, mean ± SD, n = 3, read-out: IC50 (ox)
[2] = as E1, Table S3 (mal): maleimide-constrained species, WT value is an individual replica control assay, mean ± SD, n = 3, SD, read-out: IC50 (mal)

Row | Structure (SMILES) | IC50 [1] [µM] | other results
1 | CC(=O)N[C@@H](CCC(=O)O)C(=O)N[C@@H](CCC(=O)O)C(=O)N[C@@H](CO)C(=O)N[C@@H](Cc1ccccc1)C(=O)N[C@H]1CSSC[C@@H](C(=O)N[C@@H](CC(C)C)C(=O)NCC(=O)N[C@H](C(=O)NCC(=O)N[C@@H](C)C(N)=O)[C@@H](C)O)NC(=O)[C@H](CCC(=O)O)NC(=O)[C@H](C)NC(=O)[C@@H]2CCCN2C(=O)[C@H](CC(=O)O)NC1=O [TACC3 522-536 R526C/V531C (ox)] (Ac-EESFCDPAECLGTGA-NH2; disulfide 5-10) | ≥ 500 | –
2 | CC(=O)N[C@@H](CCC(=O)O)C(=O)N[C@@H](CCC(=O)O)C(=O)N[C@@H](CO)C(=O)N[C@@H](Cc1ccccc1)C(=O)N[C@@H](CCCNC(=N)N)C(=O)N[C@@H](CC(=O)O)C(=O)N1CCC[C@H]1C(=O)N[C@@H](C)C(=O)N[C@H]1CSSC[C@@H](C(=O)N[C@H](C(=O)NCC(=O)N[C@@H](C)C(N)=O)[C@@H](C)O)NC(=O)[C@H](CC(C)C)NC(=O)[C@H](C(C)C)NC1=O [TACC3 522-536 E530C/G533C (ox)] (Ac-EESFRDPACVLCTGA-NH2; disulfide 9-12) | ≥ 500 | –
3 | CC(=O)N[C@@H](CCC(=O)O)C(=O)N[C@@H](CCC(=O)O)C(=O)N[C@@H](CO)C(=O)N[C@@H](Cc1ccccc1)C(=O)N[C@@H](CCCNC(=N)N)C(=O)N[C@H]1CSC2=C(SC[C@@H](C(=O)N[C@H](C(=O)N[C@@H](CC(C)C)C(=O)NCC(=O)N[C@H](C(=O)NCC(=O)N[C@@H](C)C(N)=O)[C@@H](C)O)C(C)C)NC(=O)[C@H](C)NC(=O)[C@@H]3CCCN3C1=O)C(=O)NC2=O [TACC3 522-536 D527C/E530C (mal)] (Ac-EESFRCPACVLGTGA-NH2; linker 6-9 via Maleimide(3,4-diyl)) | – | IC50 [2]: 186 ± 50 µM
4 | CC(=O)N[C@@H](CCC(=O)O)C(=O)N[C@@H](CCC(=O)O)C(=O)N[C@@H](CO)C(=O)N[C@@H](Cc1ccccc1)C(=O)N[C@@H](CS)C(=O)N[C@@H](CC(=O)O)C(=O)N1CCC[C@H]1C(=O)N[C@@H](C)C(=O)N[C@@H](CCC(=O)O)C(=O)N[C@@H](CS)C(=O)N[C@@H](CC(C)C)C(=O)NCC(=O)N[C@H](C(=O)NCC(=O)N[C@@H](C)C(N)=O)[C@@H](C)O [TACC3 522-536 R526C/V531C (red)] (Ac-EESFCDPAECLGTGA-NH2) | – | IC50 (as E1, free-sulfhydryl (reduced) species, DTT 5 mM in buffer, WT control (+DTT), mean ± SD, n = 3, read-out: IC50 (red)): ≥ 500 µM
5 | CC(=O)N[C@@H](CCC(=O)O)C(=O)N[C@H]1CSSC[C@@H](C(=O)N[C@@H](CC(=O)O)C(=O)N2CCC[C@H]2C(=O)N[C@@H](C)C(=O)N[C@@H](CCC(=O)O)C(=O)N[C@H](C(=O)N[C@@H](CC(C)C)C(=O)NCC(=O)N[C@H](C(=O)NCC(=O)N[C@@H](C)C(N)=O)[C@@H](C)O)C(C)C)NC(=O)[C@H](Cc2ccccc2)NC(=O)[C@H](CO)NC1=O [TACC3 522-536 E523C/R526C (ox)] (Ac-ECSFCDPAEVLGTGA-NH2; disulfide 2-5) | ≥ 500 | –
6 | COc1ccc(C[C@H](NC(=O)[C@H](CO)NC(=O)[C@H](CCC(=O)O)NC(=O)[C@H](CCC(=O)O)NC(C)=O)C(=O)N[C@@H](CCCNC(=N)N)C(=O)N[C@@H](CC(=O)O)C(=O)N2CCC[C@H]2C(=O)N[C@@H](C)C(=O)N[C@@H](CCC(=O)O)C(=O)N[C@H](C(=O)N[C@@H](CC(C)C)C(=O)NCC(=O)N[C@H](C(=O)NCC(=O)N[C@@H](C)C(N)=O)[C@@H](C)O)C(C)C)cc1 [TACC3 522-536_F525Y(OMe)] (Ac-EESY(Me)RDPAEVLGTGA-NH2) | – | IC50 (read-out: IC50): ≥ 300 µM
7 | CC(=O)N[C@@H](CCC(=O)O)C(=O)N[C@@H](CCC(=O)O)C(=O)N[C@@H](CO)C(=O)N[C@@H](Cc1ccccc1)C(=O)N[C@H]1CSC2=C(SC[C@@H](C(=O)N[C@@H](CCC(=O)O)C(=O)N[C@H](C(=O)N[C@@H](CC(C)C)C(=O)NCC(=O)N[C@H](C(=O)NCC(=O)N[C@@H](C)C(N)=O)[C@@H](C)O)C(C)C)NC(=O)[C@@H]3CCCN3C(=O)[C@H](CC(=O)O)NC1=O)C(=O)NC2=O [TACC3 522-536 R526C/A529C (mal)] (Ac-EESFCDPCEVLGTGA-NH2; linker 5-8 via Maleimide(3,4-diyl) (inferred)) | – | IC50 (as E1, Table S3 (mal): maleimide-constrained species, WT value is an individual replica control assay, mean ± SD, n = 3, read-out: IC50 (mal)): ≥ 500 µM
8 | CC(=O)N[C@@H](CC(C)C)C(=O)N[C@@H](CCC(=O)O)C(=O)N[C@@H](CC(C)C)C(=O)N[C@@H](CCCCN)C(=O)N[C@@H](CCC(=O)O)C(=O)N[C@@H](CCC(=O)O)C(=O)N[C@H]1CSCc2ccc(cc2)-c2ccc(cc2)CSC[C@@H](C(=O)N[C@H](C(=O)N[C@@H](CC(C)C)C(N)=O)C(C)C)NC(=O)[C@H](C)NC(=O)[C@@H]2CCCN2C(=O)[C@H](CC(=O)O)NC(=O)[C@H](CCCNC(=N)N)NC(=O)[C@H](Cc2ccccc2)NC1=O [TACC3 518-532 S524C/E530C (Bph)] (Ac-LELKEECFRDPACVL-NH2; linker 7-13 via Biphenyl(4,4'-CH2)2) | – | fold enhanced inhibitory potency (IC50) compared to the WT peptide (competition FA IC50 ratio vs WT): up to 4 fold
9 | CC(=O)N[C@@H](CCC(=O)O)C(=O)N[C@@H](CCC(=O)O)C(=O)N[C@@H](CO)C(=O)N[C@@H](Cc1ccccc1)C(=O)N[C@@H](CCCNC(=N)N)C(=O)N[C@@H](CC(=O)O)C(=O)N1CCC[C@H]1C(=O)N[C@@H](C)C(=O)N[C@@H](CCC(=O)O)C(=O)N[C@H]1CSC2=C(SC[C@@H](C(=O)NCC(=O)N[C@@H](C)C(N)=O)NC(=O)CNC(=O)[C@H](CC(C)C)NC1=O)C(=O)NC2=O [TACC3 522-536 V531C/T534C (mal)] (Ac-EESFRDPAECLGCGA-NH2; linker 10-13 via Maleimide(3,4-diyl)) | – | IC50 [2]: 412 ± 73 µM

The next lines start with results.

Row | IC50 [1] [µM] | Structure (SMILES) | other results
10 | ≥ 500 | CC(=O)N[C@@H](CCC(=O)O)C(=O)N[C@@H](CCC(=O)O)C(=O)N[C@@H](CO)C(=O)N[C@@H](Cc1ccccc1)C(=O)N[C@@H](CCCNC(=N)N)C(=O)N[C@@H](CC(=O)O)C(=O)N[C@H]1CSSC[C@@H](C(=O)N[C@@H](CC(C)C)C(=O)NCC(=O)N[C@H](C(=O)NCC(=O)N[C@@H](C)C(N)=O)[C@@H](C)O)NC(=O)[C@H](CCC(=O)O)NC(=O)[C@H](C)NC1=O [TACC3 522-536 P528C/V531C (ox)] (Ac-EESFRDCAECLGTGA-NH2; disulfide 7-10) | –
11 | ≥ 500 | CC(=O)N[C@@H](CCC(=O)O)C(=O)N[C@@H](CCC(=O)O)C(=O)N[C@@H](CO)C(=O)N[C@@H](Cc1ccccc1)C(=O)N[C@@H](CCCNC(=N)N)C(=O)N[C@@H](CC(=O)O)C(=O)N1CCC[C@H]1C(=O)N[C@@H](C)C(=O)N[C@@H](CCC(=O)O)C(=O)N[C@H]1CSSC[C@@H](C(=O)NCC(=O)N[C@@H](C)C(N)=O)NC(=O)CNC(=O)[C@H](CC(C)C)NC1=O [TACC3 522-536 V531C/T534C (ox)] (Ac-EESFRDPAECLGCGA-NH2; disulfide 10-13) | –
12 | ≥ 500 | CC(=O)N[C@@H](CCC(=O)O)C(=O)N[C@@H](CCC(=O)O)C(=O)N[C@@H](CO)C(=O)N[C@H]1CSSC[C@@H](C(=O)N[C@@H](C)C(=O)N[C@@H](CCC(=O)O)C(=O)N[C@H](C(=O)N[C@@H](CC(C)C)C(=O)NCC(=O)N[C@H](C(=O)NCC(=O)N[C@@H](C)C(N)=O)[C@@H](C)O)C(C)C)NC(=O)[C@H](CC(=O)O)NC(=O)[C@H](CCCNC(=N)N)NC1=O [TACC3 522-536 F525C/P528C (ox)] (Ac-EESCRDCAEVLGTGA-NH2; disulfide 4-7) | –
